Assay results as given in patent publication US20240308968A1, “FUNGICIDAL SUBSTITUTED HETEROCYCLES” (FMC Corporation, priority 2021, published 2024).

Legend:
Type in all cases: in vivo
Details in all cases: 100 = 100% disease control, 0 = no control
[1] = tested on: Zymoseptoria tritici; assay: Test A: preventive spray on wheat seedlings, wheat leaf blotch disease rating
Excerpt: (§1) General protocol for preparing test suspensions for Tests A-F: the test compounds were first dissolved in acetone in an amount equal to 3% of the final volume and then suspended at the desired concentration (in ppm) in acetone and purified water (50/50 mix by volume) containing 50 to 250 ppm of the surfactant PEG400 (polyhydric alcohol esters). The resulting test suspensions were then used in Tests A-F.
The test solution was sprayed to the point of run-off on wheat seedlings. The following day the seedlings were inoculated with a spore suspension of Zymoseptoria tritici (the causal agent of wheat leaf blotch) and incubated in a saturated atmosphere at 24° C. for 48 h, and then moved to a growth chamber at 20° C. for 17 days, after which time disease ratings were made. […]

[2] = tested on: Puccinia recondita f. sp. Tritici; assay: Test B: preventive spray on wheat seedlings, wheat leaf rust disease rating
Excerpt: as §1
The test solution was sprayed to the point of run-off on wheat seedlings. The following day the seedlings were inoculated with a spore suspension of Puccinia recondita f. sp. Tritici (the causal agent of wheat leaf rust) and incubated in a saturated atmosphere at 20° C. for 24 h, and then moved to a growth chamber at 20° C. for 7 days, after which time disease ratings were made.
(§2) The test suspension was sprayed to the point of run-off on tomato seedlings. The following day the seedlings were inoculated with a spore suspension of Alternaria solani (the causal agent of tomato early blight) and incubated in a saturated atmosphere at 27° C. for 48 h, and then moved to a growth chamber at 20° C. for 3 days, after which time visual disease ratings were made. A rating of 100 indicates 100% disease control and a rating of 0 indicates no disease control (relative to the controls). A dash (-) indicates the compound was not tested.

[3] = tested on: Blumeria graminis f. sp. Tritici; assay: Test C: preventive spray on wheat seedlings, wheat powdery mildew disease rating
Excerpt: as §1
The test suspension was sprayed to the point of run-off on wheat seedlings. The following day the seedlings were inoculated with a spore dust of Blumeria graminis f. sp. Tritici, (also known as Erysiphe graminis f. sp. Tritici, the causal agent of wheat powdery mildew) and incubated in a growth chamber at 20° C. for 8 days, after which time visual disease ratings were made.
as §2

[4] = tested on: Phakopsora pachyrhizi; assay: Test D: preventive spray on soybean seedlings, Asian soybean rust disease rating
Excerpt: as §1
The test solution was sprayed to the point of run-off on soybean seedlings. The following day the seedlings were inoculated with a spore suspension of Phakopsora pachyrhizi (the causal agent of Asian soybean rust) and incubated in a saturated atmosphere at 22° C. for 24 h and then moved to a growth chamber at 22° C. for 8 days, after which time visual disease ratings were made.
as §2

[5] = tested on: Botrytis cinerea; assay: Test E: preventive spray on tomato seedlings, tomato Botrytis disease rating
Excerpt: as §1
The test suspension was sprayed to the point of run-off on tomato seedlings. The following day the seedlings were inoculated with a spore suspension of Botrytis cinerea (the causal agent of tomato Botrytis) and incubated in a saturated atmosphere at 20° C. for 48 h, and then moved to a growth chamber at 24° C. for 3 days, after which time visual disease ratings were made.
as §2

[6] = tested on: Alternaria solani; assay: Test F: preventive spray on tomato seedlings, tomato early blight disease rating
Excerpt: as §1, §2

[7] = Zymoseptoria tritici, 456 h, 50 ppm
[8] = Puccinia recondita, 192 h, 50 ppm
[9] = Blumeria graminis, 192 h, 50 ppm
[10] = Phakopsora pachyrhizi, 216 h, 50 ppm
[11] = Botrytis cinerea, 120 h, 50 ppm
[12] = Alternaria solani, 120 h, 50 ppm

SMILES	Test A disease control rating ([1]; 50 ppm)	Test B disease control rating ([2]; 50 ppm)	Test C disease control rating ([3]; 50 ppm)	Test D disease control rating ([4]; 50 ppm)	Test E disease control rating ([5]; 50 ppm)	Test F disease control rating ([6]; 50 ppm)	other results
Cc1cscc1-c1nn(C)c(=O)c(C)c1-c1ccc(F)cc1Cl [Compound 14]	100%	99%	97%	72%	96%	94%	–
CCn1c(-c2ccc(F)cc2Cl)c(-c2cc(OC)ccc2Cl)cc(C#N)c1=O [Compound 159]	100%	100%	27%	77%	99%	94%	–
COc1cc(OC)c(Cl)c(-c2nc(C)nc(C)c2-c2ccc(F)cc2Cl)c1 [Compound 42, 4-(2-chloro-3,5-dimethoxyphenyl)-5-(2-chloro-4-fluorophenyl)-2,6-dimethylpyrimidine]	–	–	–	–	–	–	pest or weed control at 250 ppm ([1]; Zymoseptoria tritici, 456 h, 250 ppm): 96%; pest or weed control at 250 ppm ([2]; Puccinia recondita, 192 h, 250 ppm): 100%; pest or weed control at 250 ppm ([3]; Blumeria graminis, 192 h, 250 ppm): 100%; pest or weed control at 250 ppm ([4]; Phakopsora pachyrhizi, 216 h, 250 ppm): 100%; pest or weed control at 250 ppm ([5]; Botrytis cinerea, 120 h, 250 ppm): 99%; pest or weed control at 250 ppm ([6]; Alternaria solani, 120 h, 250 ppm): 100%
COC(=O)c1nn(-c2cc(OC)ccc2Cl)c(-c2ccccc2F)c(Cl)c1=O [Compound 122]	0%	19%	0%	0%	0%	0%	–
CCOC(=O)c1nn(-c2cc(OC)cc(OC)c2Cl)c(-c2ccc(F)cc2F)c(C(=O)OCC)c1=O [Compound 127]	0%	41%	0%	0%	0%	0%	–
COc1cc(-c2cc(C#N)c(=O)n(C)c2-c2c(F)cc(F)cc2F)cc(OC)c1Cl [Compound 71, 5-(4-chloro-3,5-dimethoxyphenyl)-1,2-dihydro-1-methyl-2-oxo-6-(2,4,6-trifluorophenyl)-3-pyridinecarbonitrile]	–	–	–	–	–	–	pest or weed control at 50 ppm [1, 7]: 87%; pest or weed control at 50 ppm [2, 8]: 99%; pest or weed control at 50 ppm [3, 9]: 47%; pest or weed control at 50 ppm [4, 10]: 92%; pest or weed control at 50 ppm [5, 11]: 63%; pest or weed control at 50 ppm [6, 12]: 0%
Cc1c(-c2ccc(F)cc2Cl)c(-c2cc(Br)sc2Br)nn(C)c1=O [Compound 13]	99%	80%	73%	0%	90%	0%	–
Cc1ncnc(-c2ccc(F)cc2Cl)c1-c1ccc(F)cc1Cl [Compound 43]	–	–	–	–	–	–	Test A disease control rating ([1]; 250 ppm): 0%; Test B disease control rating ([2]; 250 ppm): 0%; Test C disease control rating ([3]; 250 ppm): 0%; Test D disease control rating ([4]; 250 ppm): 78%; Test E disease control rating ([5]; 250 ppm): 0%; Test F disease control rating ([6]; 250 ppm): 0%
COc1cc(OC)c(Cl)c(-c2nc(C)nc(C)c2-c2c(F)cc(F)cc2F)c1 [Compound 54, 4-(2-chloro-3,5-dimethoxyphenyl)-2,6-dimethyl-5-(2,4,6-trifluorophenyl)pyrimidine]	–	–	–	–	–	–	pest or weed control at 50 ppm [1, 7]: 100%; pest or weed control at 50 ppm [2, 8]: 100%; pest or weed control at 50 ppm [3, 9]: 100%; pest or weed control at 50 ppm [4, 10]: 100%; pest or weed control at 50 ppm [5, 11]: 97%; pest or weed control at 50 ppm [6, 12]: 99%
CCOC(=O)c1nn(-c2cc(OC)cc(OC)c2)c(-c2ccc(F)cc2F)c(C(=O)OCC)c1=O [Compound 88]	–	–	–	–	–	–	Test A disease control rating ([1]; 250 ppm): 0%; Test B disease control rating ([2]; 250 ppm): 0%; Test C disease control rating ([3]; 250 ppm): 0%; Test D disease control rating ([4]; 250 ppm): 0%; Test E disease control rating ([5]; 250 ppm): 0%; Test F disease control rating ([6]; 250 ppm): 0%
